Like-named read-outs stand apart in the source and are kept apart here.
Key:
SARS-CoV-2 nsp3-mac1 [1] = target: T1, SARS-CoV-2 nsp3-mac1 (Severe acute respiratory syndrome coronavirus 2, UniProt P0DTD1); test: biochemical; set-up: SARS-CoV-2 nsp3 macrodomain TR-FRET single point, per cent inhibition, n=2
SARS-CoV-2 nsp3-mac1 [2] = target: T1, SARS-CoV-2 nsp3-mac1; test: biochemical; format: biochemical; details: SARS-CoV-2 nsp3 macrodomain TR-FRET single point
[3] = read-out: perc_inhibition_mean, batch_name=ASAP-0000383-001
[4] = read-out: perc_inhibition_mean, batch_name=ASAP-0000384-001
[5] = read-out: perc_inhibition_mean, batch_name=ASAP-0000385-001
[6] = read-out: perc_inhibition_mean, batch_name=ASAP-0000386-001
[7] = read-out: perc_inhibition_mean, batch_name=ASAP-0000387-001
[8] = read-out: perc_inhibition_mean, batch_name=ASAP-0000388-001
[9] = read-out: perc_inhibition_mean, batch_name=ASAP-0000389-001
[10] = read-out: perc_inhibition_mean, batch_name=ASAP-0000390-001
[11] = read-out: perc_inhibition_mean, batch_name=ASAP-0000391-001
[12] = read-out: perc_inhibition_mean, batch_name=ASAP-0000392-001
[13] = read-out: perc_inhibition_mean, batch_name=ASAP-0000393-001
[14] = read-out: perc_inhibition_mean, batch_name=ASAP-0000394-001
[15] = read-out: perc_inhibition_mean, batch_name=ASAP-0000395-001
[16] = read-out: perc_inhibition_mean, batch_name=ASAP-0000396-001
[17] = read-out: perc_inhibition_mean, batch_name=ASAP-0000397-001
[18] = read-out: perc_inhibition_mean, batch_name=ASAP-0000398-001

Compound | perc_inhibition_mean (SARS-CoV-2 nsp3-mac1 [2]; concentration 49.75 uM) [%] | perc_inhibition_mean (SARS-CoV-2 nsp3-mac1 [2]; concentration 99.5 uM) [%] | further results
O=C(c1c[nH]c(=O)cn1)N1CCC(c2ccn3ncc(C(=O)N4CCCCC4)c3c2)CC1 [ASAP-0000383] | -49.044 | 45.826 | inhibition at 49.75 µM (SARS-CoV-2 nsp3-mac1 [1]; [3]): -49%; inhibition at 99.5 µM (SARS-CoV-2 nsp3-mac1 [1]; [3]): 45.8%
CC(C)[C@@H](Nc1ncnc2[nH]ccc12)c1nncn1C [ASAP-0000384] | 4.589 | 10.829 | inhibition at 49.75 µM (SARS-CoV-2 nsp3-mac1 [1]; [4]): 4.59%; inhibition at 99.5 µM (SARS-CoV-2 nsp3-mac1 [1]; [4]): 10.8%
O=C(c1cnc2[nH]ncc2c1)N1CCC(c2ccn3ncc(C(=O)N4CCCCC4)c3c2)CC1 [ASAP-0000385] | 15.807 | 34.368 | inhibition at 49.75 µM (SARS-CoV-2 nsp3-mac1 [1]; [5]): 15.8%; inhibition at 99.5 µM (SARS-CoV-2 nsp3-mac1 [1]; [5]): 34.4%
NC(=O)c1ncccc1C(=O)N1CCC(c2ccn3ncc(C(=O)N4CCCCC4)c3c2)CC1 [ASAP-0000386] | 19.978 | 36.045 | inhibition at 49.75 µM (SARS-CoV-2 nsp3-mac1 [1]; [6]): 20%; inhibition at 99.5 µM (SARS-CoV-2 nsp3-mac1 [1]; [6]): 36%
Cc1cc(C(=O)N2CCC(c3ccn4ncc(C(=O)N5CCCCC5)c4c3)CC2)[nH]n1 [ASAP-0000387] | 16.559 | 31.572 | inhibition at 49.75 µM (SARS-CoV-2 nsp3-mac1 [1]; [7]): 16.6%; inhibition at 99.5 µM (SARS-CoV-2 nsp3-mac1 [1]; [7]): 31.6%
Cc1cc(N)ncc1C(=O)N1CCC(c2ccn3ncc(C(=O)N4CCCCC4)c3c2)CC1 [ASAP-0000388] | 19.535 | 32.615 | inhibition at 49.75 µM (SARS-CoV-2 nsp3-mac1 [1]; [8]): 19.5%; inhibition at 99.5 µM (SARS-CoV-2 nsp3-mac1 [1]; [8]): 32.6%
O=C(c1cccnc1S)N1CCC(c2ccn3ncc(C(=O)N4CCCCC4)c3c2)CC1 [ASAP-0000389] | 32.298 | 52.653 | inhibition at 49.75 µM (SARS-CoV-2 nsp3-mac1 [1]; [9]): 32.3%; inhibition at 99.5 µM (SARS-CoV-2 nsp3-mac1 [1]; [9]): 52.7%
Cc1nc(C(=O)N2CCC(c3ccn4ncc(C(=O)N5CCCCC5)c4c3)CC2)c(C)[nH]1 [ASAP-0000390] | 16.798 | 27.519 | inhibition at 49.75 µM (SARS-CoV-2 nsp3-mac1 [1]; [10]): 16.8%; inhibition at 99.5 µM (SARS-CoV-2 nsp3-mac1 [1]; [10]): 27.5%
CN1CCO[C@@H](CNC(=O)c2cnn3ccc(C4CCN(C(=O)c5ccccc5)CC4)cc23)C1 [ASAP-0000391] | -12.021 | -11.503 | inhibition at 49.75 µM (SARS-CoV-2 nsp3-mac1 [1]; [11]): -12%; inhibition at 99.5 µM (SARS-CoV-2 nsp3-mac1 [1]; [11]): -11.5%
CN1CCC[C@H](NC(=O)c2cnn3ccc(C4CCN(C(=O)c5ccccc5)CC4)cc23)C1 [ASAP-0000392] | -6.989 | -5.439 | inhibition at 49.75 µM (SARS-CoV-2 nsp3-mac1 [1]; [12]): -6.99%; inhibition at 99.5 µM (SARS-CoV-2 nsp3-mac1 [1]; [12]): -5.44%
Cc1[nH]cnc1C(=O)N1CCC(c2ccn3ncc(C(=O)N4CCCCC4)c3c2)CC1 [ASAP-0000393] | 16.419 | 32.041 | inhibition at 49.75 µM (SARS-CoV-2 nsp3-mac1 [1]; [13]): 16.4%; inhibition at 99.5 µM (SARS-CoV-2 nsp3-mac1 [1]; [13]): 32%
O=C(CCN(Cc1cccc(Cl)c1)C(=O)[C@H]1CCOC1)N1CCNCC1 [ASAP-0000394] | 4.078 | -3.965 | inhibition at 49.75 µM (SARS-CoV-2 nsp3-mac1 [1]; [14]): 4.08%; inhibition at 99.5 µM (SARS-CoV-2 nsp3-mac1 [1]; [14]): -3.96%
Cc1[nH]nc(C(=O)N2CCC(c3ccn4ncc(C(=O)N5CCCCC5)c4c3)CC2)c1C [ASAP-0000395] | 18.038 | 33.801 | inhibition at 49.75 µM (SARS-CoV-2 nsp3-mac1 [1]; [15]): 18%; inhibition at 99.5 µM (SARS-CoV-2 nsp3-mac1 [1]; [15]): 33.8%
O=C(c1ccccc1)N1CCC(c2ccn3ncc(C(=O)N4CCCC[C@H](O)C4)c3c2)CC1 [ASAP-0000396] | 17.833 | 29.785 | inhibition at 49.75 µM (SARS-CoV-2 nsp3-mac1 [1]; [16]): 17.8%; inhibition at 99.5 µM (SARS-CoV-2 nsp3-mac1 [1]; [16]): 29.8%
O=C(CCN(Cc1cccc(Cl)c1)C(=O)c1ncccc1Cl)N1CCNCC1 [ASAP-0000397] | 2.753 | 7.518 | inhibition at 49.75 µM (SARS-CoV-2 nsp3-mac1 [1]; [17]): 2.75%; inhibition at 99.5 µM (SARS-CoV-2 nsp3-mac1 [1]; [17]): 7.52%
C[C@@]1(C(N)=O)CCCN1C(=O)c1cnn2ccc(C3CCN(C(=O)c4ccccc4)CC3)cc12 [ASAP-0000398] | -8.039 | 10.386 | inhibition at 49.75 µM (SARS-CoV-2 nsp3-mac1 [1]; [18]): -8.04%; inhibition at 99.5 µM (SARS-CoV-2 nsp3-mac1 [1]; [18]): 10.4%

From publication doi:10.1101/2024.08.19.608619, “Discovery of potent SARS-CoV-2 nsp3 macrodomain inhibitors uncovers lack of translation to cellular antiviral response” (bioRxiv, 2024)
